Assay: Solubility of sensitizer in norbornadiene
Conditions: at room temperature

SMILES	solubility in norbornadiene
CCN(CC)c1ccc(C(=O)c2ccc(N(CC)CC)cc2)cc1 [EMK, 4,4′-bis (diethylamino) benzophenone]	at least 3.86 % by weight
CN(C)c1ccc(C(=O)c2ccc(N(C)C)cc2)cc1 [MK, 4,4′-bis (dimethylamino)-benzophenone]	≤ 0.32 % by weight

— patent US20040054244A1, “Process of quadricyclane production” (Exciton, Inc., priority 2000, published 2004)
